These results are taken from patent US20040081973A1, “Cloning and characterization of a novel BK channel isoform highly expressed in glioma cells” (priority 2002, published 2004).

Some results are limits rather than exact numbers.

Assay [1] has as its system Kca current. The following applies: CEFs transformed with Rous sarcoma virus (Repp et al., 1993); cited from earlier work.
Assay [2] has as its target T1, hbr5 (Homo sapiens, UniProt Q12791).
T1 construct: expressed in transfected cells; host or cells: HEK cells
As to the kind of experiment: Tetrandrine inhibition of hbr5 currents in outside-out patches from HEK cells transfected with hbr5. It counts as cell-based. To be noted: HEK293, 3 uM tetrandrine, voltage steps to +120 mV.

In assay [3] the target is T2, gBK (Homo sapiens, UniProt Q12791).
T2 construct: Outside-out patches were isolated from STTG-1 cells; endogenous in cells
T2 sequence (Q12791 1-1239 isoform Q12791-7): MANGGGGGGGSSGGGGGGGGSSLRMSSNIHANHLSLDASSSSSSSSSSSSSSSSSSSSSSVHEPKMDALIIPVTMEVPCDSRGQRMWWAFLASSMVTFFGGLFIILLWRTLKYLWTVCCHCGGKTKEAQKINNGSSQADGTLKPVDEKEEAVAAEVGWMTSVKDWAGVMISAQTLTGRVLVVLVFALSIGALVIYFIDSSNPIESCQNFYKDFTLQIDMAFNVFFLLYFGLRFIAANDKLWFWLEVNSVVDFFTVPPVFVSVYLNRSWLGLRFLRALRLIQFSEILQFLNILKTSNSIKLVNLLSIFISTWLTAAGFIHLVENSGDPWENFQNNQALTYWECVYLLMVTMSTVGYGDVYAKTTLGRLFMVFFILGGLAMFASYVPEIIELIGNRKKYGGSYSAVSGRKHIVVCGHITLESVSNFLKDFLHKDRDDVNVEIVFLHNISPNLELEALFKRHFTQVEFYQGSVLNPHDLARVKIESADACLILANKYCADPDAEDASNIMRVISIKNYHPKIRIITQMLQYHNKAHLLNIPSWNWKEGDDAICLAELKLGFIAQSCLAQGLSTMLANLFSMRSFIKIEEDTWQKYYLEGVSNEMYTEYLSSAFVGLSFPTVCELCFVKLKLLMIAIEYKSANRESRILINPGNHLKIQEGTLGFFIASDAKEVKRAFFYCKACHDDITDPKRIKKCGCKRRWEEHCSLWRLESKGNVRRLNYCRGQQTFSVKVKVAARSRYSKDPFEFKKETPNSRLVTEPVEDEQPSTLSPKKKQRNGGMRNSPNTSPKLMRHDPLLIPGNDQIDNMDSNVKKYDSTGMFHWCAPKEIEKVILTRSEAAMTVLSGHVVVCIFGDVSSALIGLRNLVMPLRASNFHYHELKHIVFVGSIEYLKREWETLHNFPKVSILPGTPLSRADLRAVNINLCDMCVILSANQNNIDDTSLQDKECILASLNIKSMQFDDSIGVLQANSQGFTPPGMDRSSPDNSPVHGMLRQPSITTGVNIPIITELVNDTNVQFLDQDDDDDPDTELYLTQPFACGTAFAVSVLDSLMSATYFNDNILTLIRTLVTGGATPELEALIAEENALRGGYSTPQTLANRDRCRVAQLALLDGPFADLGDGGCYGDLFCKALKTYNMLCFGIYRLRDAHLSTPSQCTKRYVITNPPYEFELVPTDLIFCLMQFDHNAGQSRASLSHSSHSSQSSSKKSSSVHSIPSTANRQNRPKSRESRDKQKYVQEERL
As to the kind of experiment: Tetrandrine inhibition of gBK currents in outside-out patches. The class given is cell-based. To be noted: 3 uM tetrandrine, voltage steps to +120 mV. The method, then:
Outside-out patches were isolated from STTG-1 cells and the voltage dependence of gBK currents were isolated with different [Ca^2+]i. Currents were integrated over the period of a voltage step and the average conductance was calculated from these areas (Ransom and Sontheimer, 2002). For each patch, 5-20 families of current traces over a range of voltages were obtained and the average conductance values at each membrane potential were determined. The normalized conductance was plotted as a function of membrane potential (activation curves) and fit to the Boltzman equation to obtain half-maximal voltages, V0.5. A total of 45 outside-out patches and their corresponding activation curves with [Ca^2+]i of 0 (10 mM EGTA added), 1.5×10−7 M and 2.1×10−6 M were determined. […] (FIGS. 11A and 11B). For comparison, the same set of experiments was performed on the hbr5 BK channel (Ransom and Sontheimer, 2002). V0.5 for hbr5 BK channel at [Ca^2+]i of 0 (10 mM EGTA added), 1.5×10−7 M and 2.1×10−6 M were +118 mV, +52 mV and −23 mV (FIGS. 12A and 12B).
If gBK channels are associated with β-subunits, then they should be sensitive to tetrandrine, a plant alkaloid. 3 uM tetrandrine has been reported to inhibit β-subunit-containing channels over 50%.

In assay [4] the test system is Kca. The following applies: EGF and PDGF stimulation (Huang and Rane, 1994); cited from earlier work.
For assay [5], the target named is glioma BK (gBK) channel, novel splice variant of hSlo alpha-subunit (human) (UniProt Q12791). In words: cell-based or functional assay.
Chain of glioma BK (gBK) channel, novel splice variant of hSlo alpha-subunit (human) (Q12791 other isoform, or with tags, fused parts or gaps mutant): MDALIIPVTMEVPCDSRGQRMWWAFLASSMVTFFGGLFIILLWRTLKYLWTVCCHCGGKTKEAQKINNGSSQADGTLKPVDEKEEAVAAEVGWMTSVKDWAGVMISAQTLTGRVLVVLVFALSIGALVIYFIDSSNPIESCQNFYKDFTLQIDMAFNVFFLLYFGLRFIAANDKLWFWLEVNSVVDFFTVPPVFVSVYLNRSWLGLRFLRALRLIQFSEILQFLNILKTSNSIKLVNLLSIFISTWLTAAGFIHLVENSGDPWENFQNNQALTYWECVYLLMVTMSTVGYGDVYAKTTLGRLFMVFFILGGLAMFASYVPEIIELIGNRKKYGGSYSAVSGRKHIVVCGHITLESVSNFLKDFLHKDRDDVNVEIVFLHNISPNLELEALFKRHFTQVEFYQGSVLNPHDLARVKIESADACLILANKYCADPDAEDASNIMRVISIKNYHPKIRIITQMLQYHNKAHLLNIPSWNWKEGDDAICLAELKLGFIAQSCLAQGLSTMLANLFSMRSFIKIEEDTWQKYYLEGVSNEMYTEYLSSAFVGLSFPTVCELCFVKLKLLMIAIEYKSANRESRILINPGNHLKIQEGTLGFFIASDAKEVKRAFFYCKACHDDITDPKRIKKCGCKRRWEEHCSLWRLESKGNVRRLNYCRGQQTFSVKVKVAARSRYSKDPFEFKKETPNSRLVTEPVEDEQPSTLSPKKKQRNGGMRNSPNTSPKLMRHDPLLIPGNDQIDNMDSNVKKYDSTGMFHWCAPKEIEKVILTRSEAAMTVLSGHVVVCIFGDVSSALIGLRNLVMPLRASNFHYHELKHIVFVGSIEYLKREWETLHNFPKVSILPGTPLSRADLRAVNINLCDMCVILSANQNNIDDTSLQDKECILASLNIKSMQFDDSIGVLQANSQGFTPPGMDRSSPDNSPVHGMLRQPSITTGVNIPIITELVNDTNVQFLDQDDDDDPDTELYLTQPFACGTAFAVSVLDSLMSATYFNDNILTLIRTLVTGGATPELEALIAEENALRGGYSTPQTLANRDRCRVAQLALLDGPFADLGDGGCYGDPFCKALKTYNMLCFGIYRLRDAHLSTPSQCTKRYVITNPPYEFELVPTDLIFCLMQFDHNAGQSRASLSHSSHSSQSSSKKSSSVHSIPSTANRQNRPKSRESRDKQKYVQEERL

T1 sequence (Q12791 1-1207 isoform Q12791-4): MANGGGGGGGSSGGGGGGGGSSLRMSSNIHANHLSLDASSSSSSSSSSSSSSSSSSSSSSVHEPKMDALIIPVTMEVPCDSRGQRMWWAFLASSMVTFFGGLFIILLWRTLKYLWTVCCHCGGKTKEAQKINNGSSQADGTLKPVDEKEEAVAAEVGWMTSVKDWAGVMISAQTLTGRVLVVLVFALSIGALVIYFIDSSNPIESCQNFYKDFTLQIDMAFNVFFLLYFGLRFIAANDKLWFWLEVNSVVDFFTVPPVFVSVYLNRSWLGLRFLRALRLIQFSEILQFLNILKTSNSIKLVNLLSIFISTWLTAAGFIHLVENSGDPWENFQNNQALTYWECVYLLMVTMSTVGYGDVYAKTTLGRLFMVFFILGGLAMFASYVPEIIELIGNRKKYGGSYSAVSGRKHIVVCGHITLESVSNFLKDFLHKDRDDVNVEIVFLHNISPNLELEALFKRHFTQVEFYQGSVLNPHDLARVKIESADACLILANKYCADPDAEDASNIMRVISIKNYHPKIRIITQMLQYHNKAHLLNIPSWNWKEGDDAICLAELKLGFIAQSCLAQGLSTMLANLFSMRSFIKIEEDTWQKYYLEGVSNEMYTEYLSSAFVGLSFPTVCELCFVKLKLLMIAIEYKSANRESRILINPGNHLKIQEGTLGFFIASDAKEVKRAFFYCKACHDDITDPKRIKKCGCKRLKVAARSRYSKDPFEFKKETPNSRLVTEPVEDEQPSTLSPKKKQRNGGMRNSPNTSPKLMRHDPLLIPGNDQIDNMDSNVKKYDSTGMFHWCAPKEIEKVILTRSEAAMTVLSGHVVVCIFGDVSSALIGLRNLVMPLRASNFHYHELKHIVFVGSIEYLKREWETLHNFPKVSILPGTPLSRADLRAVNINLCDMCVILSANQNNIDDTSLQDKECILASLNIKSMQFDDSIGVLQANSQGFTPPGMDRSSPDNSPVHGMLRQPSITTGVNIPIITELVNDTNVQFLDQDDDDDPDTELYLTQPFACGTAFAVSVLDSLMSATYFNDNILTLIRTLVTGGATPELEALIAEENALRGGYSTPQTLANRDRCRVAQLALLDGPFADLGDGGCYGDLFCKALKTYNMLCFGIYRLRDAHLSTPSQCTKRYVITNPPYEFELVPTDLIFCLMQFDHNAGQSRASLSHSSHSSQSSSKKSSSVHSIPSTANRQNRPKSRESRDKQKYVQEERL

Usually IC50 stands for the point on the concentration scale where inhibition reaches its midpoint. Turning to `CC[N+](CC)(CC)CC` [TEA], the 50% inhibitory concentration (IC50) in assay [1] is 1800 µM.

For orientation: inhibition means the change of the read-out against control, counted positive when it falls. For the compound `COc1ccc2cc1Oc1ccc(cc1)C[C@H]1c3cc(c(OC)cc3CCN1C)Oc1c(OC)c(OC)cc3c1[C@H](C2)N(C)CC3` [tetrandrine], the inhibition at 3 µM in assay [2] amounted to 14%; in assay [3], 63%.

For the compound charybdotoxin [ChTX], the IC50 in assay [1] was 0.019 µM. In assay [4], the “Effect on mitogenic stimulation” value is on record as “inhibited the stimulatory effect of the mitogen”. Take “iberiotoxin (IbTX) (from UniProt P24663 1-37) (peptide)”: the inhibition of total outward currents in gBK injected oocytes by 100 nM IbTX in assay [5] was over 60%.
